In test [1] the target is T1, YEATS2 YEATS domain (aa 201–332), wild type (Homo sapiens, UniProt Q9ULM3).
T1 construct: encompassing residues 201–332 of human YEATS2; 10×His-SUMO (N, cleaved yes); made in house; host or cells: Escherichia coli BL21 (DE3)
T1 sequence (Q9ULM3 201-332): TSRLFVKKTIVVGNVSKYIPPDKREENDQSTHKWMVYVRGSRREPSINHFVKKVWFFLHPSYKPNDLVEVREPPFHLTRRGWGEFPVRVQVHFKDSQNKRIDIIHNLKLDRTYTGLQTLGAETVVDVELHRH
As to the kind of experiment: Isothermal titration calorimetry (ITC), wild-type YEATS domain. The note with it: for binding in ITC, in words: WT YEATS2 YEATS domain. Format: binding. How it is done:
The YEATS2 domain encompassing residues 201–332 of human YEATS2 was cloned into a pSUMOH10 vector (an in house modified vector based on pET28b) containing an N-terminal 10×His-SUMO tag. The recombinant YEATS2_201–332 was overexpressed in Escherichia coli BL21 (DE3). After overnight induction by 0.4 mM isopropyl β-D-thiogalactoside at 16 °C in TB medium, cells were collected and suspended in buffer: 20 mM Tris, pH 7.5, 0.5 M sodium citrate, 5% glycerol, 1 mM phenylmethylsulfonyl fluoride, and 20 mM imidazole. After cell lysis and centrifugation, the recombinant protein was purified to homogeneity over HisTrap, and the 10xHis-SUMO tag was cleaved by ULP1 overnight at 4 °C then removed by reloaded onto the HisTrap column. The free YEATS2_201–332 protein was finally polished by size-exclusion chromatography on a Superdex G75 column (GE Healthcare) in elution buffer: 20 mM Tris, pH 7.5, 0.5 M sodium citrate, 5% glycerol, and 2 mM β-mercaptoethanol. All YEATS2_201–332 mutants were purified in essentially the same procedures as the wild-type protein. All mutant proteins were expressed and purified essentially the same as WT YEATS2 YEATS. […] Cells were pelleted via centrifugation, flash-frozen in liquid nitrogen, and lysed by sonication. Cell lysate was centrifuged, and the supernatant was incubated with glutathione Sepharose 4B beads (GE Healthcare). The GST tag was cleaved with Prescission protease.
All calorimetric experiments of the wild type or mutant YEATS domain proteins were conducted at 15 °C using a MicroCal iTC200 instrument (GE Healthcare). The YEATS2_201–332 samples were dialyzed in the following buffer: 20 mM Tris 7.5, 0.5 M sodium citrate, 5% glycerol, and 2 mM β-mercaptoethanol. Protein concentration was determined by absorbance spectroscopy at 280 nm. Peptides (>95% purity) were quantified by weighing on a large scale and then aliquoted and freeze-dried for individual use. Acquired calorimetric titration curves were analyzed using Origin 7.0 (OriginLab) using the “One Set of Binding Sites” fitting model.
(Isothermal titration calorimetry measures the heat released or taken up as one component is titrated into another.)

Test [2] has as its system GST-YEATS2 YEATS domain. Put plainly: Histone peptide pulldown, western blot. The test is classed as binding, human. As to conditions: 1 µg biotinylated peptide, 1–2 µg GST-fused protein, 4 °C overnight, streptavidin beads. How it is done:
An aliquot of 1 µg of biotinylated histone peptides with different modifications were incubated with 1–2 µg of GST-fused proteins in binding buffer (50 mM Tris-HCl 7.5, 250 mM NaCl, 0.1% NP-40, 1 mM phenylmethyl sulphonyl fluoride (PMSF)) at 4 °C overnight. Streptavidin beads (Amersham) were added to the mixture, and the mixture was incubated for 1 h with rotation. The beads were then washed three times and analyzed using SDS-PAGE and western blotting. For GST pulldown, 2 µg protein were incubated with 10 µg of calf thymus total histones (Worthington) in binding buffer (50 mM Tris-HCl 7.5, 1 M NaCl, 1% NP-40, 0.5 mM EDTA, 1 mM PMSF plus protease inhibitors (Roche)) at 4 °C overnight, followed by an additional 1 h Glutathione Sepharose beads (Amersham) incubation. The beads were then washed five times and analyzed using SDS-PAGE and western blotting.

Test [3] relates to 15N-labeled YEATS domain of YEATS2 (aa 201–350). Put plainly: NMR titration, 1H,15N HSQC. Format: binding, human. The note with it: 0.1 mM 15N-labeled YEATS domain, 1× PBS pH 6.8, 100 mM KCl, 298 K, increasing peptide (H3K27ac21–31 or H3K9ac1–12). How it is done: The YEATS2 domain encompassing residues 201–332 of human YEATS2 was cloned into a pSUMOH10 vector (an in house modified vector based on pET28b) containing an N-terminal 10×His-SUMO tag. The recombinant YEATS2_201–332 was overexpressed in Escherichia coli BL21 (DE3). After overnight induction by 0.4 mM isopropyl β-D-thiogalactoside at 16 °C in TB medium, cells were collected and suspended in buffer: 20 mM Tris, pH 7.5, 0.5 M sodium citrate, 5% glycerol, 1 mM phenylmethylsulfonyl fluoride, and 20 mM imidazole. After cell lysis and centrifugation, the recombinant protein was purified to homogeneity over HisTrap, and the 10xHis-SUMO tag was cleaved by ULP1 overnight at 4 °C then removed by reloaded onto the HisTrap column. The free YEATS2_201–332 protein was finally polished by size-exclusion chromatography on a Superdex G75 column (GE Healthcare) in elution buffer: 20 mM Tris, pH 7.5, 0.5 M sodium citrate, 5% glycerol, and 2 mM β-mercaptoethanol. All YEATS2_201–332 mutants were purified in essentially the same procedures as the wild-type protein. All mutant proteins were expressed and purified essentially the same as WT YEATS2 YEATS. For NMR titrations, the YEATS domain (aa 201–350) of YEATS2 was expressed in BL21(DE3) RIL cells as a GST-fusion protein in minimal media supplemented with ^15NH4Cl (Sigma). […]

Test [4] addresses AF9 YEATS domain. As to conditions: ref Li et al., 2014; cited from earlier work.
The target of test [5] is ENL YEATS domain. The note with it: ref Wan et al., 2017; cited from earlier work.

“And” between values parts separate entries of the source, which are not always exact repeats. Identical values can stand only once. “Also recorded” adds a separate entry of the source. Ends that are not written are not given here.

We go through two substances from paper PMC5651844, “YEATS2 links histone acetylation to tumorigenesis of non-small cell lung cancer” (Nature Communications, 2017).

The Kd is a measure of binding affinity in units of concentration. With “H3K27ac: K27-acetylated H3 peptide: ITC text = H3 15–39K27ac; NMR = H3K27ac21–31; pulldown = biotinylated peptide; cited AF9/ENL peptides unspecified (ATKAARK(Ac)SAPA)”, the “binding in ITC, in words” value in test [1] is “best binding substrate”. Besides, the dissociation constant (Kd) in test [1] (main text and Fig. 3e, ITC at 15 °C, N.D. = not detected, read-out: dissociation constant (KD)) was 50 µM; in test [4], ~7 µM and 7 µM; in test [5], 30 µM. Moreover, in test [2], the “binding in histone peptide pulldown” value is listed as “bound specifically”. In test [3], the “chemical shift perturbations in 1H,15N HSQC spectra” value is on record as “global chemical shift perturbations”.

Regarding “TARKSTGGK(ac)A [H36-15K14ac, histone H3 peptide, residues 6-15, acetylated at K14]”, the “binding in ITC, in words” value in test [1] (listed as H3K14ac) is “weak or no binding; also recorded: no detectable binding”.
